Measurements as given in DBAASP.
≈ marks a conversion by molar mass, not a printed value.

Key:
Experiment in all cases: ≥ marks a high value that may be exact or a test limit, other limits are often not marked, values filed in µg/mL are converted to µM
Klebsiella pneumoniae = system: Klebsiella pneumoniae
[1] = system: Candida albicans ATCC 2002
[2] = system: Pseudomonas aeruginosa CMCCB 10104
[3] = system: Staphylococcus aureus ATCC 2592
Bacillus megaterium = system: Bacillus megaterium
[4] = system: Escherichia coli ATCC 25922
Shigella dysenteriae = system: Shigella dysenteriae
[5] = system: Xanthomonas vesicatoria DSM 50861
[6] = system: Pseudomonas syringae pv. tomato DC3000
[7] = system: Pseudomonas syringae pv. syringae DSM 10604
[8] = system: Clavibacter michiganensis subsp. michiganensis DSM 46294
[9] = system: Pectobacterium carotovorum subsp. carotovorum DSM 30168
[10] = system: Pseudomonas corrugata DSM 7228
[11] = system: Bacillus subtilis ATCC 23857
[12] = system: Staphylococcus aureus USA 300
Escherichia coli K-12 = system: Escherichia coli K-12
[13] = system: Staphylococcus epidermidis ATCC 12228
[14] = system: Salmonella enterica subsp. enterica serovar Typhimurium ATCC 14028
[15] = system: Shigella dysenteriae ATCC 9752
[16] = system: Bacillus subtilis ATCC 6633
[17] = system: Staphylococcus aureus ATCC 6538P
[18] = system: Klebsiella pneumoniae ATCC 10031
[19] = system: Pseudomonas aeruginosa ATCC 27853
[20] = system: Staphylococcus aureus ATCC 6538
[21] = system: Staphylococcus aureus ATCC 29213
Leuconostoc lactis = system: Leuconostoc lactis
Listeria innocua = system: Listeria innocua
[22] = system: Staphylococcus aureus ATCC 25923

Compound: CC[C@H](C)[C@H](NC(=O)CN)C(=O)NCC(=O)NCC(=O)N[C@@H](CCCCN)C(=O)N[C@H](C(=O)N[C@@H](CC(C)C)C(=O)N[C@@H](CO)C(=O)NCC(=O)N[C@@H](CC(C)C)C(=O)N[C@@H](CCCCN)C(=O)N[C@H](C(=O)N[C@@H](C)C(=O)N[C@@H](CC(C)C)C(=O)N[C@@H](CCCCN)C(=O)NCC(=O)N[C@@H](C)C(=O)N[C@@H](C)C(=O)N[C@@H](CCCCN)C(=O)N[C@@H](CCC(=O)O)C(=O)N[C@@H](CC(C)C)C(=O)N[C@@H](C)C(=O)N[C@@H](CO)C(=O)N[C@H](C(=O)N[C@@H](Cc1ccc(O)cc1)C(=O)N[C@@H](CC(C)C)C(=O)N[C@@H](Cc1cnc[nH]1)C(=O)O)[C@@H](C)O)[C@@H](C)O)[C@@H](C)CC [GIGGKILSGLKTALKGAAKELASTYLH]
- MIC (Klebsiella pneumoniae): 1.15 µM (≈ 3.1 µg/mL)
- MIC [1]: 5.56 µM (≈ 15 µg/mL)
- MIC [2]: 0.556 µM (≈ 1.5 µg/mL)
- MIC [3]: 1.15 µM (≈ 3.1 µg/mL)
- MIC (Bacillus megaterium): 0.334 µM (≈ 0.9 µg/mL)
- MIC [4]: 0.334 µM (≈ 0.9 µg/mL)
- MIC (Shigella dysenteriae): 0.334 µM (≈ 0.9 µg/mL)

Compound: CC(C)C[C@H](NC(=O)[C@H](C)NC(=O)[C@H](CC(C)C)NC(=O)[C@H](CCCN=C(N)N)NC(=O)[C@H](CCCN=C(N)N)NC(=O)[C@@H](N)CCCCN)C(=O)N[C@@H](Cc1ccccc1)C(=O)N[C@@H](CCCN=C(N)N)C(=O)N[C@@H](C)C(=O)N[C@@H](Cc1ccccc1)C(=O)N[C@@H](CCCN=C(N)N)C(=O)N[C@@H](CC(C)C)C(=O)N[C@@H](C)C(=O)N[C@@H](CC(C)C)C(=O)N[C@@H](CCCCN)C(=O)N[C@@H](CO)C(=O)N[C@H](C(=O)N[C@@H](CC(C)C)C(=O)N[C@@H](CCCCN)C(=O)N[C@@H](CCCCN)C(N)=O)C(C)C [KRRLALFRAFRLALKSVLKK]
- MIC [5]: 0.0414 µM (≈ 0.0999 µg/mL)
- MIC [6]: 0.414 µM (≈ 1 µg/mL)
- MIC [7]: 4.14 µM (≈ 10 µg/mL)
- MIC [8]: 0.0414 µM (≈ 0.0999 µg/mL)
- MIC [9]: 4.14 µM (≈ 10 µg/mL)
- MIC [10]: 0.103 µM (≈ 0.25 µg/mL)

Compound: CC[C@H](C)[C@H](NC(=O)CN)C(=O)N[C@H](C(=O)N[C@@H](C)C(=O)NCC(=O)N[C@@H](C)C(=O)N[C@H](C(=O)N[C@H](C(=O)N[C@@H](CCCCN)C(=O)N[C@H](C(=O)N[C@@H](CCCCN)C(=O)N[C@@H](CCCCN)C(N)=O)[C@@H](C)CC)[C@@H](C)CC)[C@@H](C)CC)[C@@H](C)CC [GIIAGAIIKIKK]
- MIC [4]: 64 µM (≈ 78.3 µg/mL)
- MIC [11]: ≥ 32 µM

Compound: CC[C@H](C)[C@H](NC(=O)[C@H](CCCN=C(N)N)NC(=O)[C@H](CCC(N)=O)NC(=O)[C@@H](NC(=O)[C@@H](NC(=O)[C@H](CCCN=C(N)N)NC(=O)[C@H](CCCN=C(N)N)NC(=O)[C@H](Cc1ccccc1)NC(=O)[C@H](CCC(=O)O)NC(=O)CN)[C@@H](C)CC)C(C)C)C(=O)N[C@@H](CCCN=C(N)N)C(=O)N[C@@H](CC(=O)O)C(=O)N[C@@H](Cc1ccccc1)C(=O)N[C@@H](CC(C)C)C(=O)N[C@@H](CCCN=C(N)N)C(=O)N[C@@H](CC(N)=O)C(=O)N[C@@H](CC(C)C)C(=O)N[C@H](C(N)=O)C(C)C [GEFRRIVQRIRDFLRNLV]
- MIC [12]: 30 µM (≈ 68.6 µg/mL)
- MIC (Escherichia coli K-12): ≥ 60 µM

Compound: CC(C)C[C@H](NC(=O)[C@H](Cc1c[nH]c2ccccc12)NC(=O)[C@H](CCCCN)NC(=O)[C@H](CCCCN)NC(=O)[C@@H](N)CC(C)C)C(=O)N[C@@H](CCCCN)C(N)=O [LKKWLK]
- MIC [13]: > 245 µM
- MIC [14]: > 245 µM
- MIC [15]: ≥ 245 µM
- MIC [16]: ≥ 245 µM
- MIC [17]: ≥ 245 µM
- MIC [18]: ≥ 245 µM
- MIC [4]: > 245 µM
- MIC [19]: > 245 µM

Compound: NCCCC[C@H](NC(=O)[C@H](Cc1ccccc1)NC(=O)[C@H](Cc1ccccc1)NC(=O)[C@H](CCCCN)NC(=O)[C@H](Cc1ccccc1)NC(=O)[C@H](CCCCN)NC(=O)[C@H](CCCCN)NC(=O)[C@H](CCCCN)NC(=O)[C@@H](N)CCCN=C(N)N)C(=O)N[C@@H](CCCN=C(N)N)C(=O)N[C@@H](Cc1ccccc1)C(=O)N[C@@H](Cc1ccccc1)C(N)=O [RKKKFKFFKRFF]
- MIC [5]: 0.293 µM (≈ 0.5 µg/mL)
- MIC [6]: 1.46 µM (≈ 2.5 µg/mL)
- MIC [7]: 0.0586 µM (≈ 0.1 µg/mL)
- MIC [8]: 0.146 µM (≈ 0.25 µg/mL)
- MIC [9]: 5.86 µM (≈ 9.99 µg/mL)
- MIC [10]: 0.0586 µM (≈ 0.1 µg/mL)

Compound: CC[C@H](C)[C@H](NC(=O)[C@H](CC(N)=O)NC(=O)[C@H](CCCN=C(N)N)NC(=O)[C@H](C)NC(=O)[C@H](CCSC)NC(=O)[C@H](CCCCN)NC(=O)[C@H](CCC(=O)O)NC(=O)[C@@H](NC(=O)[C@H](CCCCN)NC(=O)[C@H](CCCCN)NC(=O)[C@H](Cc1ccccc1)NC(=O)[C@@H](NC(=O)[C@H](CCCCN)NC(=O)[C@H](Cc1c[nH]c2ccccc12)NC(=O)[C@@H](N)CCCCN)C(C)C)[C@@H](C)CC)C(=O)N[C@@H](CCCN=C(N)N)C(=O)N[C@@H](CC(N)=O)C(=O)N[C@@H](CCCCN)C(=O)N[C@H](C(=O)N[C@H](C(=O)N[C@@H](CCCCN)C(N)=O)C(C)C)[C@@H](C)CC [KWKVFKKIEKMARNIRNKIVK]
- MIC [20]: > 12 µM
- MIC (Escherichia coli K-12): 6 µM (≈ 15.9 µg/mL)
- MIC [19]: > 3 µM

Compound: CC[C@H](C)[C@H](N)C(=O)N[C@@H](CC(=O)O)C(=O)N[C@@H](Cc1c[nH]c2ccccc12)C(=O)N[C@@H](CCCCN)C(=O)N[C@@H](CCCCN)C(=O)N[C@@H](CC(C)C)C(=O)N[C@@H](CC(C)C)C(=O)N[C@@H](CC(=O)O)C(=O)N1CCC[C@H]1C(=O)N[C@@H](C)C(=O)N[C@@H](CCCCN)C(=O)N[C@@H](CCC(N)=O)C(=O)N[C@H](C(=O)N[C@@H](CC(C)C)C(N)=O)[C@@H](C)CC [IDWKKLLDPAKQIL]
- MIC [13]: 512 µM (≈ 860 µg/mL)
- MIC [21]: 1020 µM (≈ 1720 µg/mL)
- MIC [4]: 256 µM (≈ 430 µg/mL)
- MIC [11]: ≥ 128 µM

Compound: CC[C@H](C)[C@H](NC(=O)[C@H](CO)NC(=O)[C@H](CO)NC(=O)[C@@H](NC(=O)[C@H](CC(C)C)NC(=O)CN)C(C)C)C(=O)NCC(=O)N[C@@H](CCCCN)C(=O)N[C@H](C(=O)N[C@@H](CC(C)C)C(=O)NCC(=O)NCC(=O)N[C@@H](CC(C)C)C(=O)N[C@@H](CC(C)C)C(=O)N[C@@H](C)C(=O)N[C@@H](CC(=O)O)C(=O)N[C@H](C(=O)N[C@H](C(=O)N[C@@H](CCCCN)C(=O)N[C@@H](CO)C(=O)N[C@@H](CCCCN)C(=O)NCC(=O)N[C@@H](CCC(N)=O)C(=O)N1CCC[C@H]1C(=O)N[C@@H](C)C(=O)O)C(C)C)C(C)C)C(C)C [GLVSSIGKVLGGLLADVVKSKGQPA]
- MIC (Leuconostoc lactis): 10.4 µM (≈ 25 µg/mL)
- MIC (Listeria innocua): ≥ 41.8 µM

Compound: CC[C@H](C)[C@H](NC(=O)CN)C(=O)NCC(=O)NCC(=O)N[C@H](C(=O)N[C@@H](CC(C)C)C(=O)N[C@@H](CC(C)C)C(=O)N[C@@H](CO)C(=O)N[C@@H](C)C(=O)NCC(=O)N[C@@H](CCCCN)C(=O)N[C@@H](C)C(=O)N[C@@H](C)C(=O)N[C@@H](CC(C)C)C(=O)N[C@@H](CCCCN)C(=O)NCC(=O)N[C@@H](CC(C)C)C(=O)N[C@@H](C)C(=O)N[C@@H](CCCCN)C(=O)N[C@H](C(=O)N[C@@H](CC(C)C)C(=O)N[C@@H](C)C(=O)N[C@@H](CCC(=O)O)C(=O)N[C@@H](CCCCN)C(=O)N[C@@H](Cc1ccc(O)cc1)C(=O)N[C@@H](C)C(=O)N[C@@H](CC(N)=O)C(N)=O)C(C)C)C(C)C [GIGGVLLSAGKAALKGLAKVLAEKYAN]
- MIC (Klebsiella pneumoniae): 5.74 µM (≈ 15 µg/mL)
- MIC [1]: 5.74 µM (≈ 15 µg/mL)
- MIC [2]: 1.03 µM (≈ 2.7 µg/mL)
- MIC [3]: 1.03 µM (≈ 2.7 µg/mL)
- MIC (Bacillus megaterium): 0.574 µM (≈ 1.5 µg/mL)
- MIC [4]: 1.03 µM (≈ 2.7 µg/mL)
- MIC (Shigella dysenteriae): 1.03 µM (≈ 2.7 µg/mL)

Compound: CC(C)C[C@H](NC(=O)[C@H](CC(C)C)NC(=O)[C@H](CCCCN)NC(=O)[C@H](CCCCN)NC(=O)[C@H](Cc1c[nH]c2ccccc12)NC(=O)[C@H](CCCN=C(N)N)NC(=O)[C@H](CCCCN)NC(=O)[C@H](CC(C)C)NC(=O)[C@H](CC(C)C)NC(=O)[C@@H](N)Cc1c[nH]c2ccccc12)C(N)=O [WLLKRWKKLL]
- MIC [4]: 64 µM (≈ 88.5 µg/mL)
- MIC [19]: 8 µM (≈ 11.1 µg/mL)
- MIC [22]: 32 µM (≈ 44.3 µg/mL)
- MIC [11]: 16 µM (≈ 22.1 µg/mL)
